According to patent publication US7135292B2, “Analysis and modification of gene expression in marine invertebrate cells” (Harbor Branch Oceanographic Institution, Inc., priority 2002, dated 2006):

Test system: Axinella corrugata cell cultures
Assay: Human-sequence microarray (Gene Filters) analysis of gene expression, PHA-treated vs untreated sponge cell cultures
Assay type: cell-based
Text: Sponge Cells. Cells were obtained from cryopreserved stocks at Harbor Branch Oceanographic Institution. All cells were derived from Axinella corrugata specimens collected in the waters of Florida, the Bahamas, and the Caribbean Sea, and were cryopreserved according to Pomponi et al. (Pomponi et al. 1997b supra). This sponge is relatively common and easy to collect, amenable to culture efforts, and produces the bioactive compound, stevensine, in vitro (Pomponi et al. 1997b supra). Enriched fractions of dissociated sponge cells were prepared, cryopreserved, and thawed according to previously published methods (Pomponi et al. 1997b supra). Cells were incubated at 22–25° C. in a growth medium consisting of a modified and supplemented commercial formulation (Willoughby and Pomponi 2000 supra). The length of the incubation period was based on my unpublished observation of elevated DNA and protein contents (9%, P=0.034, and 9%, P=0.038, respectively) in PHA-treated cultures, according to fluorescent assays of 6 replicate comparisons (Willoughby and Pomponi 2000 supra). Since the effects were observed between 6 and 18 hours after treatment, cells were cultured for 12-hour periods representing the center point of the period of observed changes. Two sets of cultures were incubated with approximately 2×10^8 cells per T-75 flask—a control set and an experimental set treated with 1.5% phytohemagglutinin (PHA) (Life Technologies, M-form).
RNA Isolation. RNA isolation was performed on unrinsed, pelleted cells. Pellets were quickly frozen in a dry ice alcohol bath and stored at −70° C. until RNA isolation. The Qiagen RNeasy® protocol was used, with the following modifications. Samples were disrupted with a micropestle or homogenized by the rotor-stator method, using twice the recommended volume of lysis solution. Prior to column loading, samples were centrifuged through a Qiashredder® column to complete homogenization and remove insoluble material. Supernatant was collected for use in the rest of the protocol. During the first wash step, samples were incubated on the column with DNase 1 (Qiagen or Ambion) for 15 minutes. After the final wash, samples were incubated on the column with the RNase free elution water for 15 minutes prior to elution. Sub-samples were diluted 20× and quantified on a Genequant® spectrophotometer.
cDNA Labeling. Sub-samples of the isolated total RNA (8 μl) were primed with oligo dT (10–20 mer) (Research Genetics, Inc.) for 10 minutes at 70° C., then briefly chilled on ice, followed by addition of 2 volumes of RT cocktail based upon the Life Technologies Superscript II® protocol (containing dATP, dGTP, dTTP, and α-^33P dCTP [NEN Easy Tides®, 3000 Ci/mmol]). The mixture was incubated for 90 minutes at 37° C., and diluted to 100 μl for purification on a Bio-Spin column (Boi-Rad) according to the Gene Filter® (Research Genetics, Inc.) recommended protocol. The resultant labeled probes were then denatured for 3 minutes in a boiling water bath prior to incorporation into the hybridization solution.
Microarrays. Research Genetics Gene Filters®, version 211, were employed in this study. These microarrays feature over 4000 distinct sequence-verified genes spotted onto a 5×7 cm nylon membrane. The DNA at each spot represents approximately 1 kb from the 3′ end of the gene. The microarrays also include spots of total genomic DNA (see FIG. 5). The 211 series is constructed from human sequences. A cross-referenced database listing of all the genes represented on the array is available at http://www.resgen.com. The 2 genes referenced in this work carry the I.M.A.G.E. Consortium (Lennon, G. G., C. Auffray, M. Polymeropoulos and M. B. Soares 1996, Genomics 33:151–152), Clone IDs 81408 (calcineurin B) and 858292 (cdc10).
Hybridization. […]

phytohemagglutinin [PHA]
Ratio, Small inducible cytokine A11 (eotaxin) (No. 56, PHA treated/untreated, 12 h): 0.493
Ratio, Major histocompatibility complex, class II, DR beta 5 (No. 57, PHA treated/untreated, 12 h): 0.255
Ratio, Evi-1 (No. 58, PHA treated/untreated, 12 h): 0.159
Ratio, Homo sapiens thrombospondin 3 (THBS3) gene, complete cds (No. 59, PHA treated/untreated, 12 h): 0.019
Ratio, RhoE (No. 60, PHA treated/untreated, 12 h): 0.312
Ratio, Human bone morphogenetic protein-3b (No. 61, PHA treated/untreated, 12 h): 0.209
Ratio, Vitamin K-dependent gamma-B74carboxylase (No. 62, PHA treated/untreated, 12 h): 2.101
Ratio, Homo sapiens cdc14 homolog mRNA, complete cds (No. 63, PHA treated/untreated, 12 h): 11.905
Ratio, Homo sapiens, alpha-1 (VI) collagen (No. 64, PHA treated/untreated, 12 h): 2.509
Ratio, Homo sapiens BAI 3 mRNA, complete cds (No. 65, PHA treated/untreated, 12 h): 3.228
Ratio, Human TFIIB related factor hBRF (HBRF) mRNA, complete cds (No. 66, PHA treated/untreated, 12 h): 0.118
Ratio, Human capping protein alpha mRNA, partial cds (No. 67, PHA treated/untreated, 12 h): 2.650
Ratio, Human melanocyte-specific gene 1 (msg1) mRNA, complete cds (No. 68, PHA treated/untreated, 12 h): 0.390
Ratio, Ras-like protein TC21 (No. 69, PHA treated/untreated, 12 h): 2.737
Ratio, Homo sapiens mRNA for inositol 1,4,5-trisphosphate 3-kinase isoenzyme, partial cds (No. 70, PHA treated/untreated, 12 h): 0.494
Ratio, Homo sapiens clone 23619 phosphoprotein mRNA, partial cds (No. 71, PHA treated/untreated, 12 h): 0.296
Ratio, Human lysosomal glycosylasparaginase (AGA) gene (No. 72, PHA treated/untreated, 12 h): 0.317
Ratio, COUP transcription factor (No. 73, PHA treated/untreated, 12 h): 0.080
Ratio, Human mRNA for prepro cortistatin like peptide, complete cds (No. 74, PHA treated/untreated, 12 h): 3.616
Ratio, Homo sapiens mRNA for repressor protein, partial cds (No. 75, PHA treated/untreated, 12 h): 0.483
Ratio, N-Terminal acetyltransferase complex ARD1 subunit homolog + B88 (No. 76, PHA treated/untreated, 12 h): 0.275
Ratio, Human alpha-tubulin isotype H2-alpha gene, last exon (No. 77, PHA treated/untreated, 12 h): 0.264
Ratio, Human alpha-cardiac actin gene, 5′ flank and (No. 78, PHA treated/untreated, 12 h): 0.402
Ratio, Homo sapiens MAD-related gene SMAD7 (SMAD7) mRNA, complete cds (No. 79, PHA treated/untreated, 12 h): 3.829
Ratio, Human ETS2 oncogene (No. 80, PHA treated/untreated, 12 h): 2.260
Ratio, Human mRNA for alpha-catenin, complete cds (No. 81, PHA treated/untreated, 12 h): 0.147
Ratio, Human mRNA for TESK1, complete cds (No. 82, PHA treated/untreated, 12 h): 0.282
Ratio, Homo sapiens DnaJ protein (HSPF2) mRNA, complete cds (No. 83, PHA treated/untreated, 12 h): 0.206
Ratio, Keratin, type I cytoskeletal 20 (No. 84, PHA treated/untreated, 12 h): 0.283
Ratio, Homo sapiens FMRFamide-related prepropeptide mRNA, complete cds (No. 85, PHA treated/untreated, 12 h): 2.156
Ratio, H. sapiens mRNA for p40 (No. 86, PHA treated/untreated, 12 h): 7.841
Ratio, Homo sapiens mRNA for p115, complete cds (No. 87, PHA treated/untreated, 12 h): 0.477
Ratio, Factor VIII intron 22 protein (No. 88, PHA treated/untreated, 12 h): 0.490
Ratio, Human RNA polymerase II subunit hsRPB7 mRNA, complete cds (No. 89, PHA treated/untreated, 12 h): 0.441
Ratio, Homo sapiens mRNA for osteomodulin, complete cds (No. 90, PHA treated/untreated, 12 h): 0.354
Ratio, Hemoglobin zeta chain (No. 91, PHA treated/untreated, 12 h): 11.817
Ratio, Human cartilage-specific homeodomain protein Cart-1 mRNA, complete cds (No. 92, PHA treated/untreated, 12 h): 0.201
Ratio, Human cytochrome bc-1 complex core protein II mRNA, complete cds (No. 93, PHA treated/untreated, 12 h): 0.325
Ratio, H. sapiens mRNA for Ndr protein kinase (No. 94, PHA treated/untreated, 12 h): 0.435
Ratio, Human HEM45 mRNA, complete cds (No. 95, PHA treated/untreated, 12 h): 0.114
Ratio, C-1-tetrahydrofolate synthase, cytoplasmic (No. 96, PHA treated/untreated, 12 h): 2.966
Ratio, Homo sapiens mRNA for transducin (beta) like 1 protein (No. 97, PHA treated/untreated, 12 h): 0.091
Ratio, Human Bcl-2 related (Bfl-1) mRNA, complete cds (No. 98, PHA treated/untreated, 12 h): 0.472
Ratio, H. sapiens mRNA for InsP3 5-phosphatase (No. 99, PHA treated/untreated, 12 h): 0.215
Ratio, H. sapiens mRNA for 17-beta-hydroxysteroid dehydrogenase (No. 100, PHA treated/untreated, 12 h): 0.432
Ratio, Ubiquitin carboxyl-terminal hydrolase isozyme L3 (No. 101, PHA treated/untreated, 12 h): 0.388
Ratio, Human putative tRNA synthetase-like protein mRNA, complete cds (No. 102, PHA treated/untreated, 12 h): 0.493
Ratio, Human galectin-4 (GAL4) mRNA, complete cds (No. 103, PHA treated/untreated, 12 h): 0.443
Ratio, Glycylpeptide N-tetradecanoyl transferase (No. 104, PHA treated/untreated, 12 h): 0.354
Ratio, H. sapiens LDLC mRNA (No. 105, PHA treated/untreated, 12 h): 0.395
Ratio, Human CREB-binding protein (CBP) mRNA, complete cds (No. 106, PHA treated/untreated, 12 h): 0.210
Ratio, Human enigma gene, complete cds (No. 107, PHA treated/untreated, 12 h): 0.496
Ratio, Human FEZ2 mRNA, partial cds (No. 108, PHA treated/untreated, 12 h): 0.283
calcineurin down-regulated by the PHA treatment (microarray) (approximately): 2–5 fold
cdc10 up-regulated by the PHA treatment (microarray) (approximately): 2–5 fold
